Molecules are shown by their SMILES.

The nature of this assay: DPPH radical scavenging activity relative to control. In kind it is functional.

Broadly, the IC50 is the point on the concentration scale where inhibition reaches its midpoint. Low values mean greater potency in that assay, high ones weaker potency in that assay. On to `Cc1cc(C(C)(C)C)c(O)c(C(C)(C)C)c1` [BUTYLATED HYDROXYTOLUENE], for which the 50% inhibitory concentration (IC50) turned out to be 83.8 µM.

As to `CCCCOC(=O)Cc1cc(Br)c(O)c(Br)c1`, 16.1 µM corresponded to half-maximal inhibition (IC50).

Take `O=C(O)C(Cc1cc(O)c(O)c(Br)c1)c1cc(Br)c(O)c(Br)c1` (stereo not given): half-maximal inhibition (IC50) required 21.9 µM.

`CC(=O)/C=C/c1cc(O)c(O)c(Br)c1` yielded a half-inhibitory concentration (IC50) of 9.67 µM.

The compound `Oc1cc(CCc2cc(O)c(O)c(Br)c2)cc(Br)c1O` yielded an IC50 of 19.6 µM.

The values are drawn from ChEMBL document CHEMBL1137454, “Natural bromophenols from the marine red alga Polysiphonia urceolata (Rhodomelaceae): structural elucidation and DPPH radical-scavenging activity” (Bioorg Med Chem, 2007).
